Laboratory results: the supplement of paper PMC11061612

Assays:
MK-2206 = compound: NC1(c2ccc(-c3nc4ccn5c(=O)[nH]nc5c4cc3-c3ccccc3)cc2)CCC1 [MK-2206]; details: max 10 µM
How it was run: (§1)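 Cancer cell lines in 1536-well plates (7.5 μl DMEM/F12 or RPMI, 10% FBS) were held 24 hours at 37°C and 5% CO2 and then dosed for 72 hours at a final DMSO of typically 0.2%. Viability was taken from CellTiter-Glo 2.0 luminescence, scaled between blank-well and DMSO-well means. Curves were fitted as two-parameter logistic models with a non-linear mixed effects model, from which the single-agent IC50 was taken.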

AZD2811 = compound: CCN(CCO)CCCOc1ccc2c(Nc3cc(CC(=O)Nc4cccc(F)c4)[nH]n3)ncnc2c1 [AZD2811]; details: max 1 µM
How it was run: as §1

AZD5991 = compound: Cc1c2c(nn1C)CSCc1cc(n(C)n1)CSc1cc(c3ccccc3c1)OCCCc1c(C(=O)O)n(C)c3c-2c(Cl)ccc13 [AZD5991]; details: max 1 µM
How it was run: as §1

Gefitinib = compound: COc1cc2ncnc(Nc3ccc(F)c(Cl)c3)c2cc1OCCCN1CCOCC1 [Gefitinib]; details: max 10 µM
How it was run: as §1

AZD5153 = compound: COc1nnc2ccc(N3CCC(c4ccc(OCCN5CCN(C)C(=O)[C@H]5C)cc4)CC3)nn12 [AZD5153]; details: max 1 µM
How it was run: as §1

SN-38 = compound: CCc1c2c(nc3ccc(O)cc13)-c1cc3c(c(=O)n1C2)COC(=O)[C@]3(O)CC [SN-38]; details: max 0.3 µM
How it was run: as §1

Lapatinib = compound: CS(=O)(=O)CCNCc1ccc(-c2ccc3ncnc(Nc4ccc(OCc5cccc(F)c5)c(Cl)c4)c3c2)o1 [Lapatinib]; details: max 10 µM
How it was run: as §1

Prexasertib = compound: COc1cccc(OCCCN)c1-c1cc(Nc2cnc(C#N)cn2)n[nH]1 [Prexasertib]; details: max 1 µM
How it was run: as §1

Doxorubicin = compound: COc1cccc2c1C(=O)c1c(O)c3c(c(O)c1C2=O)C[C@@](O)(C(=O)CO)C[C@@H]3O[C@H]1C[C@H](N)[C@H](O)[C@H](C)O1 [Doxorubicin]; details: max 1 µM
How it was run: as §1

AZD7648 = compound: Cc1cc2ncnn2cc1Nc1ncc2c(n1)n(C1CCOCC1)c(=O)n2C [AZD7648]; details: max 10 µM
How it was run: as §1

Venetoclax = compound: CC1(C)CCC(CN2CCN(c3ccc(C(=O)NS(=O)(=O)c4ccc(NCC5CCOCC5)c([N+](=O)[O-])c4)c(Oc4cnc5[nH]ccc5c4)c3)CC2)=C(c2ccc(Cl)cc2)C1 [Venetoclax]; details: max 1 µM
How it was run: as §1

Dasatinib = compound: CC1=C(C(=CC=C1)Cl)NC(=O)C2=CN=C(S2)NC3=CC(=NC(=N3)C)N4CCN(CC4)CCO [Dasatinib]; details: max 2 µM
How it was run: as §1

Crizotinib = compound: C[C@@H](Oc1cc(-c2cnn(C3CCNCC3)c2)cnc1N)c1c(Cl)ccc(F)c1Cl [Crizotinib]; details: max 10 µM
How it was run: as §1

Capivasertib = compound: C1CN(CCC1(C(=O)N[C@@H](CCO)C2=CC=C(C=C2)Cl)N)C3=NC=NC4=C3C=CN4 [Capivasertib]; details: max 10 µM
How it was run: as §1

AZD6738 = compound: C[C@@H]1COCCN1C2=NC(=NC(=C2)C3(CC3)[S@](=N)(=O)C)C4=C5C=CNC5=NC=C4 [AZD6738]; details: max 10 µM
How it was run: as §1

Taselisib = compound: Cc1nc(-c2cn3c(n2)-c2ccc(-c4cnn(C(C)(C)C(N)=O)c4)cc2OCC3)n(C(C)C)n1 [Taselisib]; details: max 10 µM
How it was run: as §1

AZD4320 = compound: CN(CC[C@H](CSC1=CC=CC=C1)NC2=C(C=C(C=C2)S(=O)(=O)NC(=O)C3=CC=C(C=C3)N4CCC(CC4)[C@H](C5=CC=CC=C5C6=CC=C(C=C6)Cl)O)S(=O)(=O)C(F)(F)F)CCO [AZD4320]; details: max 1 µM
How it was run: as §1

AZD0156 = compound: CN(C)CCCOc1ccc(-c2ccc3ncc4c(c3c2)n(C2CCOCC2)c(=O)n4C)cn1 [AZD0156]; details: max 3 µM
How it was run: as §1

Savolitinib = compound: C[C@@H](c1ccc2nccn2c1)n1nnc2ncc(-c3cnn(C)c3)nc21 [Savolitinib]; details: max 1 µM
How it was run: as §1

Selumetinib = compound: Cn1cnc2c(F)c(Nc3ccc(Br)cc3Cl)c(C(=O)NOCCO)cc21 [Selumetinib]; details: max 10 µM
How it was run: as §1

Alisertib = compound: COc1cc(Nc2ncc3c(n2)-c2ccc(Cl)cc2C(c2c(F)cccc2OC)=NC3)ccc1C(=O)O [Alisertib]; details: max 10 µM
How it was run: as §1

SG3199 = compound: CC1=CN2[C@@H](C1)C=NC3=CC(=C(C=C3C2=O)OC)OCCCCCOC4=C(C=C5C(=C4)N=C[C@@H]6CC(=CN6C5=O)C)OC [SG3199]; details: max 0.001 µM
How it was run: as §1

AZD1390 = compound: CC(C)n1c(=O)n(C)c2cnc3cc(F)c(-c4ccc(OCCCN5CCCCC5)nc4)cc3c21 [AZD1390]; details: max 0.3 µM
How it was run: as §1

Trametinib = compound: CC(=O)Nc1cccc(-n2c(=O)n(C3CC3)c(=O)c3c(Nc4ccc(I)cc4F)n(C)c(=O)c(C)c32)c1 [Trametinib]; details: max 1 µM
How it was run: as §1

Palbociclib = compound: CC(=O)c1c(C)c2cnc(Nc3ccc(N4CCNCC4)cn3)nc2n(C2CCCC2)c1=O [Palbociclib]; details: max 10 µM
How it was run: as §1

AZD8186 = compound: C[C@@H](Nc1cc(F)cc(F)c1)c1cc(C(=O)N(C)C)cc2c(=O)cc(N3CCOCC3)oc12 [AZD8186]; details: max 3 µM
How it was run: as §1

AZD1775 = compound: C=CCn1c(=O)c2cnc(Nc3ccc(N4CCN(C)CC4)cc3)nc2n1-c1cccc(C(C)(C)O)n1 [AZD1775]; details: max 3 µM
How it was run: as §1

Olaparib = compound: O=C(c1cc(Cc2n[nH]c(=O)c3ccccc23)ccc1F)N1CCN(C(=O)C2CC2)CC1 [Olaparib]; details: max 10 µM
How it was run: as §1

Cell Line: RH-1 (Ewing's Sarcoma)
- IC50, cell viability 72 h (MK-2206): > 10000 nM
- IC50, cell viability 72 h (AZD2811): 22.6 nM
- IC50, cell viability 72 h (AZD5991): 550 nM
- IC50, cell viability 72 h (Gefitinib): > 10000 nM
- IC50, cell viability 72 h (AZD5153): > 1000 nM
- IC50, cell viability 72 h (SN-38): 4.35 nM
- IC50, cell viability 72 h (Lapatinib): > 10000 nM
- IC50, cell viability 72 h (Prexasertib): 18.4 nM
- IC50, cell viability 72 h (Doxorubicin): 56.1 nM
- IC50, cell viability 72 h (AZD7648): > 10000 nM
- IC50, cell viability 72 h (Venetoclax): > 1000 nM
- IC50, cell viability 72 h (Dasatinib): > 2000 nM
- IC50, cell viability 72 h (Crizotinib): 2250 nM
- IC50, cell viability 72 h (Capivasertib): > 10000 nM
- IC50, cell viability 72 h (AZD6738): 2000 nM
- IC50, cell viability 72 h (Taselisib): 6260 nM
- IC50, cell viability 72 h (AZD4320): 830 nM
- IC50, cell viability 72 h (AZD0156): > 3000 nM
- IC50, cell viability 72 h (Savolitinib): > 1000 nM
- IC50, cell viability 72 h (Selumetinib): > 10000 nM
- IC50, cell viability 72 h (Alisertib): 39 nM
- IC50, cell viability 72 h (SG3199): > 1 nM
- IC50, cell viability 72 h (AZD1390): > 300 nM
- IC50, cell viability 72 h (Trametinib): > 1000 nM
- IC50, cell viability 72 h (Palbociclib): > 10000 nM
- IC50, cell viability 72 h (AZD8186): > 3000 nM
- IC50, cell viability 72 h (AZD1775): 95.1 nM
- IC50, cell viability 72 h (Olaparib): > 10000 nM

Cell Line: SNU-C5 (Colorectal Carcinoma)
- IC50, cell viability 72 h (AZD2811): > 1000 nM
- IC50, cell viability 72 h (AZD5991): > 1000 nM
- IC50, cell viability 72 h (Gefitinib): > 10000 nM
- IC50, cell viability 72 h (AZD5153): 578 nM
- IC50, cell viability 72 h (SN-38): 43.5 nM
- IC50, cell viability 72 h (Lapatinib): > 10000 nM
- IC50, cell viability 72 h (Prexasertib): 21.8 nM
- IC50, cell viability 72 h (Doxorubicin): > 1000 nM
- IC50, cell viability 72 h (AZD7648): > 10000 nM
- IC50, cell viability 72 h (Venetoclax): > 1000 nM
- IC50, cell viability 72 h (Dasatinib): > 2000 nM
- IC50, cell viability 72 h (Crizotinib): > 10000 nM
- IC50, cell viability 72 h (Capivasertib): > 10000 nM
- IC50, cell viability 72 h (AZD6738): 4000 nM
- IC50, cell viability 72 h (Taselisib): 2010 nM
- IC50, cell viability 72 h (AZD4320): > 1000 nM
- IC50, cell viability 72 h (AZD0156): > 3000 nM
- IC50, cell viability 72 h (Savolitinib): > 1000 nM
- IC50, cell viability 72 h (Selumetinib): > 10000 nM
- IC50, cell viability 72 h (Alisertib): 9360 nM
- IC50, cell viability 72 h (SG3199): > 1 nM
- IC50, cell viability 72 h (AZD1390): > 300 nM
- IC50, cell viability 72 h (Trametinib): 563 nM
- IC50, cell viability 72 h (Palbociclib): > 10000 nM
- IC50, cell viability 72 h (AZD8186): > 3000 nM
- IC50, cell viability 72 h (AZD1775): 507 nM
- IC50, cell viability 72 h (Olaparib): > 10000 nM

Cell Line: SUIT-2 (Pancreatic Carcinoma)
- IC50, cell viability 72 h (MK-2206): > 10000 nM
- IC50, cell viability 72 h (AZD2811): > 1000 nM
- IC50, cell viability 72 h (AZD5991): > 1000 nM
- IC50, cell viability 72 h (Gefitinib): > 10000 nM
- IC50, cell viability 72 h (AZD5153): > 1000 nM
- IC50, cell viability 72 h (SN-38): 32.6 nM
- IC50, cell viability 72 h (Lapatinib): > 10000 nM
- IC50, cell viability 72 h (Prexasertib): 178 nM
- IC50, cell viability 72 h (Doxorubicin): > 1000 nM
- IC50, cell viability 72 h (AZD7648): > 10000 nM
- IC50, cell viability 72 h (Venetoclax): > 1000 nM
- IC50, cell viability 72 h (Dasatinib): > 2000 nM
- IC50, cell viability 72 h (Crizotinib): > 10000 nM
- IC50, cell viability 72 h (Capivasertib): > 10000 nM
- IC50, cell viability 72 h (AZD6738): > 10000 nM
- IC50, cell viability 72 h (Taselisib): > 10000 nM
- IC50, cell viability 72 h (AZD4320): > 1000 nM
- IC50, cell viability 72 h (AZD0156): > 3000 nM
- IC50, cell viability 72 h (Savolitinib): > 1000 nM
- IC50, cell viability 72 h (Selumetinib): > 10000 nM
- IC50, cell viability 72 h (Alisertib): > 10000 nM
- IC50, cell viability 72 h (SG3199): > 1 nM
- IC50, cell viability 72 h (AZD1390): > 300 nM
- IC50, cell viability 72 h (Trametinib): 478 nM
- IC50, cell viability 72 h (Palbociclib): > 10000 nM
- IC50, cell viability 72 h (AZD8186): > 3000 nM
- IC50, cell viability 72 h (AZD1775): 1860 nM
- IC50, cell viability 72 h (Olaparib): > 10000 nM
